pIC50: −log10 of the molar value. Activity calls are given as the source filed them. No cut-off for these calls is given here.
Key:
HT-29 [1] = assay: Antiproliferative activity against human HT-29 cells cultured as 3D spheroids assessed as inhibition of spheroid formation measured after 48 hrs by MTT assay; type: functional, cell-based; settings: HT-29, 48 h
HT-29 [2] = assay: Induction of cell cycle arrest in human HT-29 cells assessed as accumulation of cells at G2 phase at 2.7 uM measured after 72 hrs by propidium iodide staining based flow cytometry analysis (Rvb= 9.09%); type: functional
HT-29 [3] = assay: Anticlonogenic activity against human HT-29 cells assessed as inhibition of colony formation measured after 6 days by methylene blue staining based assay; type: functional, cell-based; settings: dose 1.35-2.7 µM, time 6.0 day
HT-29 [4] = assay: Induction of mitochondrial membrane potential loss in human HT-29 cells assessed as apoptotic cells at 2.7 uM measured after 48 hrs by JC-1 staining based flow cytometry analysis (Rvb= 8.6%); type: functional
HT-29 [5] = assay: Induction of apoptosis in human HT-29 cells assessed as dead cells at 2.7 uM measured after 24 hrs by FITC-annexin V/propidium iodide- double staining based flow cytometry analysis (Rvb= 0.4%); type: functional
HT-29 [6] = assay: Induction of apoptosis in human HT-29 cells assessed as late apoptotic cells at 2.7 uM measured after 24 hrs by FITC-annexin V/propidium iodide- double staining based flow cytometry analysis (Rvb= 3.0%); type: functional
HT-29 [7] = assay: Induction of cell cycle arrest in human HT-29 cells assessed as accumulation of cells at G2 phase at 2.7 uM measured after 24 hrs by propidium iodide staining based flow cytometry analysis (Rvb= 9.09%); type: functional
HT-29 [8] = assay: Induction of apoptosis in human HT-29 cells assessed as early apoptotic cells at 2.7 uM measured after 48 hrs by FITC-annexin V/propidium iodide- double staining based flow cytometry analysis (Rvb= 12.8%); type: functional
HT-29 [9] = assay: Cytotoxicity against human HT-29 cells assessed as cell growth inhibition measured after 48 hrs by MTT assay; type: functional, cell-based; settings: HT-29, 48 h
HT-29 [10] = assay: Antiproliferative activity in human HT-29 cells cultured as 3D spheroids assessed as reduction in 3D structure of spheroid morphology at IC50 measured after 48 hrs; type: functional, cell-based
HT-29 [11] = assay: Induction of apoptosis in human HT-29 cells assessed as activation of caspase-3 at 2.7 uM measured after 24 hrs by flow cytometry analysis (Rvb= 2.2%); type: functional
HT-29 [12] = assay: Induction of mitochondrial membrane potential loss in human HT-29 cells assessed as healthy cells at 2.7 uM measured after 72 hrs by JC-1 staining based flow cytometry analysis (Rvb= 91.4%); type: functional
HT-29 [13] = assay: Induction of apoptosis in human HT-29 cells assessed as dead cells at 2.7 uM measured after 72 hrs by FITC-annexin V/propidium iodide- double staining based flow cytometry analysis (Rvb= 0.4%); type: functional
HT-29 [14] = assay: Induction of apoptosis in human HT-29 cells assessed as viable cells at 2.7 uM measured after 48 hrs by FITC-annexin V/propidium iodide- double staining based flow cytometry analysis (Rvb= 83.8%); type: functional; settings: read-out: Activity
Tubulin (Homo sapiens) = Tubulin (Homo sapiens) (UniProt P68371+Q9H4B7+P0DPH7+P68366+Q13509+Q71U36+P04350+Q3ZCM7+P07437+P68363+Q9BQE3+Q6PEY2+Q13885+Q9BVA1+Q9BUF5); assay: Induction of tubulin polymerization in human HT-29 cells assessed as stabilization of microtubules at 10 uM by spectrophotometric analysis; type: cell-based
HT-29 [15] = assay: Induction of cell cycle arrest in human HT-29 cells assessed as accumulation of cells at S phase at 2.7 uM measured after 24 hrs by propidium iodide staining based flow cytometry analysis (Rvb= 35.52%); type: functional
HT-29 [16] = assay: Induction of cell cycle arrest in human HT-29 cells assessed as accumulation of cells at S phase at 2.7 uM measured after 72 hrs by propidium iodide staining based flow cytometry analysis (Rvb= 35.52%); type: functional
HT-29 [17] = assay: Induction of apoptosis in human HT-29 cells assessed as late apoptotic cells at 2.7 uM measured after 72 hrs by FITC-annexin V/propidium iodide- double staining based flow cytometry analysis (Rvb= 3.0%); type: functional
HT-29 [18] = assay: Induction of cell cycle arrest in human HT-29 cells assessed as accumulation of cells at S phase at 2.7 uM measured after 48 hrs by propidium iodide staining based flow cytometry analysis (Rvb= 35.52%); type: functional
HT-29 [19] = assay: Induction of cell cycle arrest in human HT-29 cells assessed as accumulation of cells at G1 phase at 2.7 uM measured after 72 hrs by propidium iodide staining based flow cytometry analysis (Rvb= 55.39%); type: functional
[20] = Selectivity index, ratio of IC50 for human CCD-18Co cells to IC50 for human HT-29 cells assessed as cell growth inhibition measured after 48 hrs by MTT assay
HT-29 [21] = assay: Induction of mitochondrial membrane potential loss in human HT-29 cells assessed as apoptotic cells at 2.7 uM measured after 72 hrs by JC-1 staining based flow cytometry analysis (Rvb= 8.6%); type: functional
HT-29 [22] = assay: Induction of apoptosis in human HT-29 cells assessed as viable cells at 2.7 uM measured after 72 hrs by FITC-annexin V/propidium iodide- double staining based flow cytometry analysis (Rvb= 83.8%); type: functional; settings: read-out: Activity
HT-29 [23] = assay: Induction of apoptosis in human HT-29 cells assessed as viable cells at 2.7 uM measured after 24 hrs by FITC-annexin V/propidium iodide- double staining based flow cytometry analysis (Rvb= 83.8%); type: functional; settings: read-out: Activity
CCD-18Co = assay: Cytotoxicity against human CCD-18Co cells assessed as cell growth inhibition measured after 48 hrs by MTT assay; type: cell-based
HT-29 [24] = assay: Induction of apoptosis in human HT-29 cells assessed as activation of caspase-3 at 2.7 uM measured after 48 hrs by flow cytometry analysis (Rvb= 2.2%); type: functional
HT-29 [25] = assay: Induction of apoptosis in human HT-29 cells assessed as early apoptotic cells at 2.7 uM measured after 72 hrs by FITC-annexin V/propidium iodide- double staining based flow cytometry analysis (Rvb= 12.8%); type: functional
HT-29 [26] = assay: Antiproliferative activity in human HT-29 cells cultured as 3D spheroids assessed as gradual disaggregation of peripheral cells at IC50 measured after 48 hrs; type: functional, cell-based
HT-29 [27] = assay: Induction of cell cycle arrest in human HT-29 cells assessed as accumulation of cells at G1 phase at 2.7 uM measured after 24 hrs by propidium iodide staining based flow cytometry analysis (Rvb= 55.39%); type: functional
HT-29 [28] = assay: Induction of mitochondrial membrane potential loss in human HT-29 cells assessed as healthy cells at 2.7 uM measured after 24 hrs by JC-1 staining based flow cytometry analysis (Rvb= 91.4%); type: functional
HT-29 [29] = assay: Induction of mitochondrial membrane potential loss in human HT-29 cells assessed as apoptotic cells at 2.7 uM measured after 24 hrs by JC-1 staining based flow cytometry analysis (Rvb= 8.6%); type: functional
HT-29 [30] = assay: Induction of mitochondrial membrane potential loss in human HT-29 cells assessed as healthy cells at 2.7 uM measured after 48 hrs by JC-1 staining based flow cytometry analysis (Rvb= 91.4%); type: functional
HT-29 [31] = assay: Induction of cell cycle arrest in human HT-29 cells assessed as accumulation of cells at G1 phase at 2.7 uM measured after 48 hrs by propidium iodide staining based flow cytometry analysis (Rvb= 55.39%); type: functional
HT-29 [32] = assay: Induction of apoptosis in human HT-29 cells assessed as dead cells at 2.7 uM measured after 48 hrs by FITC-annexin V/propidium iodide- double staining based flow cytometry analysis (Rvb= 0.4%); type: functional
HT-29 [33] = assay: Induction of apoptosis in human HT-29 cells assessed as early apoptotic cells at 2.7 uM measured after 24 hrs by FITC-annexin V/propidium iodide- double staining based flow cytometry analysis (Rvb= 12.8%); type: functional
HT-29 [34] = assay: Induction of cell cycle arrest in human HT-29 cells assessed as accumulation of cells at G2 phase at 2.7 uM measured after 48 hrs by propidium iodide staining based flow cytometry analysis (Rvb= 9.09%); type: functional
HT-29 [35] = assay: Induction of apoptosis in human HT-29 cells assessed as late apoptotic cells at 2.7 uM measured after 48 hrs by FITC-annexin V/propidium iodide- double staining based flow cytometry analysis (Rvb= 3.0%); type: functional
HT-29 [36] = assay: Induction of apoptosis in human HT-29 cells assessed as activation of caspase-3 at 2.7 uM measured after 72 hrs by flow cytometry analysis (Rvb= 2.2%); type: functional

For `O=c1[nH]cc(F)c(=O)[nH]1` [FLUOROURACIL], the pIC50 (HT-29 [1]) was 4.59.

In the case of `C/C=C1/CN2CC[C@]34c5cc([C@@H](C)[C@H]6[C@@H]7C[C@H]8c9c(c%10ccccc%10n9C)C[C@@H]([C@@H]7CO[C@@H]6O)N8C)c(OC)cc5N(C)[C@H]3[C@@H]2C[C@@H]1C4C(=O)OC` (some centres undefined), the Activity (HT-29 [2]) was 9.44%, the Activity (HT-29 [3]) was “Dose-Dependent Effect” and the Activity (HT-29 [4]) was 31.2%. It also gave an Activity (HT-29 [5]) of 0.2%, an Activity (HT-29 [6]) of 9.8% and an Activity (HT-29 [7]) of 9.84%. For the same compound, the Activity (HT-29 [8]) was 28.2%, the pIC50 (HT-29 [9]) was 5.60 and the Activity (HT-29 [10]) was “Active”. It also gave an Activity (HT-29 [11]) of 1.7%, an Activity (HT-29 [12]) of 35.8% and an Activity (HT-29 [13]) of 0.2%. For the same compound, the viability at 2.7 µM (HT-29 [14]) was 61.8%, the Activity (Tubulin (Homo sapiens)) was “Active” and the Activity (HT-29 [15]) was 34.12%. The Activity (HT-29 [16]) was 13.77%, the Activity (HT-29 [17]) was 25.6% and the Activity (HT-29 [18]) was 23.15%. The Activity (HT-29 [19]) was 76.79%, the “Ratio IC50” value [20] was 4.88 and the Activity (HT-29 [21]) was 64.2%. For the same compound, the viability at 2.7 µM (HT-29 [22]) was 25.2%, the viability at 2.7 µM (HT-29 [23]) was 76.2% and the pIC50 (HT-29 [1]) was 5.00. For the same compound, the pIC50 (CCD-18Co) was 4.91, the Activity (HT-29 [24]) was 8.2% and the Activity (HT-29 [25]) was 49.1%. The Activity (HT-29 [26]) was “Active”, the Activity (HT-29 [27]) was 56.04% and the Activity (HT-29 [28]) was 88.7%. It also gave an Activity (HT-29 [29]) of 11.3%, an Activity (HT-29 [30]) of 68.8% and an Activity (HT-29 [31]) of 67.84%. For the same compound, the Activity (HT-29 [32]) was 0.2%, the Activity (HT-29 [33]) was 13.8% and the Activity (HT-29 [34]) was 9.01%. The Activity (HT-29 [35]) was 9.9% and the Activity (HT-29 [36]) was 50.2%.
